From PMC3469748 (Molecular and cellular biochemistry, 2012)

Experiments:
[1] = biological target: T1, thioredoxin reductase 1 (TrxR) (Rattus norvegicus, UniProt O89049); experiment: DTNB reduction assay
T1 sequence (O89049 1-499): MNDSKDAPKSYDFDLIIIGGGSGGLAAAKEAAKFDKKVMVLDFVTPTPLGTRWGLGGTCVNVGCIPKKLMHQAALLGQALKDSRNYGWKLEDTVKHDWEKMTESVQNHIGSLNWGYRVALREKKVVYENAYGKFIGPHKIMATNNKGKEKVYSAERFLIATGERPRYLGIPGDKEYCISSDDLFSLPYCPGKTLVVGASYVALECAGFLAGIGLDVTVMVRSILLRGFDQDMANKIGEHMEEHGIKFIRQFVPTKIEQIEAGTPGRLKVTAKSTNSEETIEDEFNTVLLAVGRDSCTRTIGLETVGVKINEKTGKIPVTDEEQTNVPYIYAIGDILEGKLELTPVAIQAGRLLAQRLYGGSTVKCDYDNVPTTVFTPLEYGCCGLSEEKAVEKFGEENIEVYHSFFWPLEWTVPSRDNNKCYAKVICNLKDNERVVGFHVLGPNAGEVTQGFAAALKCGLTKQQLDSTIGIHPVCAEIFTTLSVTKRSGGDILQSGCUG

[2] = biological target: T1, thioredoxin reductase 1 (TrxR); experiment: biochemical

Row | Compound | IC50 [1] [µM] | IC50 [2] [µM]
1 | CNC(=O)N(NS(C)(=O)=O)S(C)(=O)=O [101MDCE] | 5.37 ± 0.58 | –
2 | O=NN(CCCl)C(=O)NCCCl [Carmustine, 1,3-bis(2-chloroethyl)-1-nitrosourea] | – | 7.63 ± 0.72
3 | CNC(=O)N(N(CCCl)S(C)(=O)=O)S(C)(=O)=O [Laromustine, 1,2-bis(methylsulfonyl)-1-(2-chloroethyl)-2-[(methylamino)carbonyl]hydrazine] | 4.65 ± 0.37 | –
